From ChEMBL document CHEMBL1759979, “Impact of aryloxy-linked quinazolines: a novel series of selective VEGFR-2 receptor tyrosine kinase inhibitors” (Bioorg Med Chem Lett, 2011)

Legend:
[1] = Antiproliferative activity against human EAhy926 cells after 72 hrs by MTS assay; type: functional, EA.hy 926; parameters: concentration or dose not given beside the values
HT-29 [2] = assay: Antiproliferative activity against human HT-29 cells after 72 hrs by MTS assay; type: functional; parameters: concentration or dose not given beside the values
MCF7 [3] = assay: Antiproliferative activity against human MCF7 cells after 72 hrs by MTS assay; type: functional; parameters: concentration or dose not given beside the values
PC-3 [4] = assay: Antiproliferative activity against human PC3 cells after 72 hrs by MTS assay; type: functional; parameters: concentration or dose not given beside the values
[5] = molecular target: T1, Vascular endothelial growth factor receptor 2 (Homo sapiens, UniProt P35968); assay: Inhibition of recombinant human VEGFR-2-mediated poly(Glu4Tyr) phosphorylation after 1 hr
T1 sequence (P35968 whole entry): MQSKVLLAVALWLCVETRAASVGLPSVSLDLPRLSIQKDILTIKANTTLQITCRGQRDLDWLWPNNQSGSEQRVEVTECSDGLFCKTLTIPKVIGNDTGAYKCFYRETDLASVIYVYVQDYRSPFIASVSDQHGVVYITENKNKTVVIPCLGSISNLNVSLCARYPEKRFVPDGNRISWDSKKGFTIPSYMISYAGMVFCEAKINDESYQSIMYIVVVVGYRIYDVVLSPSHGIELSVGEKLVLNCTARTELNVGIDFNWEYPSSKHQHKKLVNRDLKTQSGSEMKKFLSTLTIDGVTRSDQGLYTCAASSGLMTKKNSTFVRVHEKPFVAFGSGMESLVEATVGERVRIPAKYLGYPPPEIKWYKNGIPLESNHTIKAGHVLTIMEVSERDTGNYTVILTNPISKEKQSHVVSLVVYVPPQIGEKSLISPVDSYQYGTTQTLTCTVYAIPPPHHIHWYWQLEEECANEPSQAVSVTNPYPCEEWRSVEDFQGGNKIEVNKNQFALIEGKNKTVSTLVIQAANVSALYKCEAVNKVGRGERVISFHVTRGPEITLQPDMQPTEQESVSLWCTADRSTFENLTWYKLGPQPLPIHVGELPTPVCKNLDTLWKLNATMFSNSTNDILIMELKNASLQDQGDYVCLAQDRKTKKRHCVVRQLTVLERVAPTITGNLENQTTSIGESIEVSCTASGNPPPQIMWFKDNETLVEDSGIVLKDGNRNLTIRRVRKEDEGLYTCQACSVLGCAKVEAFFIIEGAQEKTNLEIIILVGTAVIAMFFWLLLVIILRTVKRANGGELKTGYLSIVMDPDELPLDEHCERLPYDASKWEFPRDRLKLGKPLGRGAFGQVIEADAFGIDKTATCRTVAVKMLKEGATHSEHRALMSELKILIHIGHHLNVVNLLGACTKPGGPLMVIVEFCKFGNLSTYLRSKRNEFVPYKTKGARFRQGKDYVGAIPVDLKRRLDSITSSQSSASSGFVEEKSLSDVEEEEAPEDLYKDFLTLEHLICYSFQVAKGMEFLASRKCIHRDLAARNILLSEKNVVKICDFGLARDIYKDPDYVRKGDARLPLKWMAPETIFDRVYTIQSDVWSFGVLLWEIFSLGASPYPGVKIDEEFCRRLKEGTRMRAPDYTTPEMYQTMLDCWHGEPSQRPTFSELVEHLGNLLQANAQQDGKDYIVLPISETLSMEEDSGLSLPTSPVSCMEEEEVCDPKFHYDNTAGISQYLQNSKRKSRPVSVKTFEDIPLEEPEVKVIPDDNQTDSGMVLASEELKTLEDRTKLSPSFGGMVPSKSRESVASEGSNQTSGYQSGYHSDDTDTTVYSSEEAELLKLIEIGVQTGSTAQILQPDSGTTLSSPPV

[6] = molecular target: Epidermal growth factor receptor (Homo sapiens, UniProt P00533); assay: Inhibition of human EGFR-mediated poly(Glu4Tyr) phosphorylation after 1 hr
Sequence of Epidermal growth factor receptor (P00533 whole entry): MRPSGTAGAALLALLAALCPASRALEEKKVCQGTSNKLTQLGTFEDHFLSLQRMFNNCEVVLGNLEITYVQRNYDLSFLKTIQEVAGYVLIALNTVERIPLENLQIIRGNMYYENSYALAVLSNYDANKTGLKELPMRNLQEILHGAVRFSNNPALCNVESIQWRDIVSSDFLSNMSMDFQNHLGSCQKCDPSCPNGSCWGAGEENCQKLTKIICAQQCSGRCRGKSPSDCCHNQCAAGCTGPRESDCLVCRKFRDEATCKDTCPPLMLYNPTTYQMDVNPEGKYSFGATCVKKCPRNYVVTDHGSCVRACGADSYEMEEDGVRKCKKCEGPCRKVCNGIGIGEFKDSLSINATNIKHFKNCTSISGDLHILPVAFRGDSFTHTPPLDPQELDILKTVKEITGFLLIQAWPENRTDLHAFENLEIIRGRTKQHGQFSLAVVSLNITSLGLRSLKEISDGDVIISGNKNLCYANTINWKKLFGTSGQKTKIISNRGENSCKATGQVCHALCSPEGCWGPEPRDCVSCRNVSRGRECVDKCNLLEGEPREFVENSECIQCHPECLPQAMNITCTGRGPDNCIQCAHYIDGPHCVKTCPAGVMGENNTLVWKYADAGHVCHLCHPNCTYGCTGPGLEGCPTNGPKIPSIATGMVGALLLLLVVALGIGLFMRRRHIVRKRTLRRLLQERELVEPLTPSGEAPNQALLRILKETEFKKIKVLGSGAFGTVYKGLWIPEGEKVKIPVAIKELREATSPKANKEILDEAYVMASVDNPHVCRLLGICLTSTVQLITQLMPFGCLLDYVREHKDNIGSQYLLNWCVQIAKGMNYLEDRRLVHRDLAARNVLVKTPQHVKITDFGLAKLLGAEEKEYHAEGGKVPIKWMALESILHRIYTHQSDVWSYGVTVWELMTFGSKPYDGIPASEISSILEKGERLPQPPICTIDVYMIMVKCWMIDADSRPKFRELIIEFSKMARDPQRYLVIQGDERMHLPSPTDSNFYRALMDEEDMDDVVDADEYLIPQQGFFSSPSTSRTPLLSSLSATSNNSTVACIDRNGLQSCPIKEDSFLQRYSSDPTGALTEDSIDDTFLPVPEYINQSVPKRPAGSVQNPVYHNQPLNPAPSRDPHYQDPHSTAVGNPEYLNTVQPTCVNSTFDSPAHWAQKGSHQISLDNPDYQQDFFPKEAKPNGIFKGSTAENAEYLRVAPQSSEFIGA

HT-29 [7] = assay: Antiproliferative activity against human HT-29 cells at 10 uM after 72 hrs by MTS assay; type: functional, cell-based; settings: HT-29, 72 h
PC-3 [8] = assay: Antiproliferative activity against human PC3 cells at 10 uM after 72 hrs by MTS assay; type: functional, cell-based; settings: PC-3, 72 h
MCF7 [9] = assay: Antiproliferative activity against human MCF7 cells at 10 uM after 72 hrs by MTS assay; settings: MCF7, 72 h
[10] = Antiproliferative activity against human EAhy926 cells at 10 uM after 72 hrs by MTS assay; type: functional, cell-based; settings: EA.hy 926, 72 h
[11] = molecular target: T1, Vascular endothelial growth factor receptor 2; assay: Inhibition of KDR

IC50 [5] [µM] | IC50 [6] [µM] | Compound | Activity [1] [%] | Activity (HT-29 [2]) [%] | Activity (MCF7 [3]) [%] | Activity (PC-3 [4]) [%] | other results
0.06 | > 10 | COc1cc2ncnc(Oc3ccc(NC(=O)Nc4ccccc4)cc3)c2cc1OC | 15 | 12 | 12 | 23 | 
 | > 10 | COc1cc2ncnc(Oc3cccc(NC(=O)Nc4ccccc4)c3)c2cc1OC |  |  |  |  | 
> 10 | > 10 | COc1cc2ncnc(Nc3ccc(NC(C)=O)cc3)c2cc1OC | 0 | 0 | 12 | 2 | 
5.8 |  | COC(=O)Nc1ccc(Nc2ncnc3cc(OC)c(OC)cc23)cc1 | 0 | 10 | 27 | 2 | 
5.6 | > 10 | CCOC(=O)Nc1ccc(Nc2ncnc3cc(OC)c(OC)cc23)cc1 | 0 | 16 | 6 | 12 | 
 | > 10 | COc1cc2ncnc(Nc3ccc(NC(=O)Nc4ccccc4)cc3)c2cc1OC |  |  |  |  | 
 | > 10 | COc1ccc(NC(=O)Nc2ccc(Nc3ncnc4cc(OC)c(OC)cc34)cc2)cc1 |  |  |  |  | 
 | > 10 | COc1cc2ncnc(Oc3ccc(NC(=O)Nc4ccc(Br)cc4)cc3)c2cc1OC |  |  |  |  | 
 | > 10 | COc1cc2ncnc(Oc3ccc(NC(=O)Nc4ccc(C)cc4)cc3)c2cc1OC | 42 | 17 | 23 | 23 | 
 | > 10 | COc1cc2ncnc(Oc3ccc(NC(=O)Nc4ccc5ccccc5c4)cc3)c2cc1OC |  |  |  |  | 
4.3 | > 10 | COc1cc2ncnc(Nc3ccc(NC(=O)Nc4ccc(F)c(Cl)c4)cc3)c2cc1OC |  |  |  |  | IC50 (PC-3 [8]): 9.4 µM; IC50 (MCF7 [9]): 7.7 µM; IC50 [10]: 5.3 µM; IC50 (HT-29 [7]): 6.2 µM
0.07 | > 10 | COc1ccc(NC(=O)Nc2ccc(Oc3ncnc4cc(OC)c(OC)cc34)cc2)cc1 | 24 | 9 | 0 | 12 | IC50 [11]: 0.07 µM

More lines, now with the values behind:

Compound | IC50 [5] [µM] | IC50 [6] [µM] | Activity [1] [%] | Activity (HT-29 [2]) [%] | Activity (MCF7 [3]) [%] | Activity (PC-3 [4]) [%] | other results
COc1cc2ncnc(N(C)c3cccc(NC(=O)Nc4ccccc4)c3)c2cc1OC |  |  | 0 | 0 | 0 | 0 | 
COc1ccc(NC(=O)Nc2cccc(N(C)c3ncnc4cc(OC)c(OC)cc34)c2)cc1 |  |  | 0 | 0 | 0 | 0 | 
COc1ccc(NC(=O)Nc2cccc(Oc3ncnc4cc(OC)c(OC)cc34)c2)cc1 |  | > 10 |  |  |  |  | 
COc1cc2ncnc(Nc3ccc(Br)cc3F)c2cc1OC | 1.65 | 5.7 | 0 | 0 | 31 | 1 | 
COc1cc2ncnc(N(C)c3ccc(F)c(Cl)c3)c2cc1OC | > 10 | > 10 | 46 |  | 0 | 22 | IC50 (HT-29 [7]): 5.2 µM
COc1cc2ncnc(N(C)c3ccc(Br)cc3F)c2cc1OC | > 10 | > 10 | 0 | 14 | 0 | 15 | 
COc1cc2ncnc(Oc3ccc(F)c(Cl)c3)c2cc1OC | 9.5 | > 10 |  |  | 0 | 5 | IC50 (HT-29 [7]): 4.07 µM
COc1cc2ncnc(Oc3ccc(Br)c(F)c3)c2cc1OC |  | 5.9 |  |  |  |  | 
COc1cc2ncnc(Oc3ccc(NC(C)=O)cc3)c2cc1OC |  |  | 3 | 0 | 5 | 0 | 
COC(=O)Nc1ccc(Oc2ncnc3cc(OC)c(OC)cc23)cc1 |  | > 10 |  |  |  |  | 
CCOC(=O)Nc1ccc(Oc2ncnc3cc(OC)c(OC)cc23)cc1 |  | > 10 |  |  |  |  | 
CCCCNC(=O)Nc1ccc(Oc2ncnc3cc(OC)c(OC)cc23)cc1 |  | > 10 |  |  |  |  | 
COc1cc2ncnc(Oc3ccc(NC(=O)Nc4ccc(F)cc4F)cc3)c2cc1OC |  | > 10 |  |  |  |  | 
COc1cc2ncnc(Oc3ccc(NC(=O)Nc4ccc(F)c(Cl)c4)cc3)c2cc1OC |  | > 10 |  |  |  |  | 
COc1cc2ncnc(Oc3ccc(NC(=O)Nc4ccc(C(F)(F)F)cc4)cc3)c2cc1OC |  | > 10 |  |  |  |  | 
COc1cc2ncnc(Oc3ccc(NC(=O)Nc4cccc5ccccc45)cc3)c2cc1OC |  | > 10 | 9 | 17 | 8 | 8 | 
COc1cc2ncnc(N(C)c3ccc(NC(=O)Nc4ccc(F)c(Cl)c4)cc3)c2cc1OC | > 10 | > 10 | 29 |  | 35 |  | 
COc1cc2ncnc(Oc3ccc(NC(=O)NC4CCCCC4)cc3)c2cc1OC |  | > 10 |  |  |  |  | 
COc1cc2ncnc(Nc3cccc(Br)c3)c2cc1OC |  |  |  |  |  | 40 | IC50 [10]: 7.1 µM
COc1cc2ncnc(Nc3ccc(F)c(Cl)c3)c2cc1OC | 5.3 |  |  |  |  |  | IC50 (PC-3 [8]): 6.5 µM; IC50 (MCF7 [9]): 4.9 µM; IC50 [10]: 4.5 µM; IC50 (HT-29 [7]): 5.7 µM
COc1cc2ncnc(Oc3cccc(Br)c3)c2cc1OC |  | 7.6 | 0 | 6 | 0 | 27 | 
COc1cc2/c(=N/c3ccc(Br)cc3F)nc[nH]c2cc1OCC1CCN(C)CC1 [VANDETANIB] |  |  |  |  | 26 | 33 | IC50 [10]: 5.1 µM; IC50 (HT-29 [7]): 4.2 µM
